This passage reports IC50 and melting point results from patent US6495683B2, “4-oxo-4,7-dihydro-thieno[2,3-b]pyridine-5-carboxamides as antiviral agents” (Pharmacia and Upjohn Company, priority 1999, dated 2002).

Counter-ions that a name gives are not always drawn. Like-named read-outs stand apart in the source and are kept apart here.

One data set concerns the target T1, HCMV polymerase (Human cytomegalovirus, UniProt P08546).
T1 construct: made in house; host or cells: recombinant baculovirus-infected SF-9 cells
As to the kind of experiment: biochemical. The settings on record: modified SPA assay: compounds diluted in 100% DMSO, 4.5 mM DTT in polymerase buffer; read-out: polymerase IC50 (μM) HCMV. The procedure: The HCMV polymerase assay is performed using a scintillation proximity assay (SPA) as described in several references, such as N. D. Cook, et al., Pharmaceutical Manufacturing International, pages 49-53 (1992); K. Takeuchi, Laboratory Practice, September issue (1992); U.S. Pat. No. 4,568,649 (1986); which are incorporated by reference herein. Reactions are performed in 96-well plates. The assay is conducted in 100 μl volume with 5.4 mM HEPE (pH 7.5), 11.7 mM KCl, 4.5 mM MgCl2, 0.36 mg/ml BSA, and 90 nM ^3H-dTTP. Assays are run with and without CHAPS, (3-[(3-cholamidopropyl)-dimethylammonio]-1-propane-sulfonate) at a final concentration of 2 mM. HCMV polymerase is diluted in enzyme dilution buffer containing 50% glycerol, 250 mM NaCl, 10 mM HEPES (pH 7.5), 100 μg/ml BSA, and 0.01% sodium azide. The HCMV polymerase, which is expressed in recombinant baculovirus-infected SF-9 cells and purified according to literature procedures, is added at 10% (or 10 μl) of the final reaction volume, i.e., 100 μl. Compounds are diluted in 50% DMSO and 10 μl are added to each well. Control wells contain an equivalent concentration of DMSO. Unless noted otherwise, reactions are initiated via the addition of 6 nM biotinylated poly(dA)-oligo(dT) template/primer to reaction mixtures containing the enzyme, substrate, and compounds of interest. Plates are incubated in a 25 C or 37 C H2O bath and terminated via the addition of 40 μl/reaction of 0.5 M EDTA (pH 8) per well. Reactions are terminated within the time-frame during which substrate incorporation is linear and varied depending upon the enzyme and conditions used, i.e., 30 min. for HCMV polymerase. Ten μl of streptavidin-SPA beads (20 mg/ml in PBS/10% glycerol) are added following termination of the reaction. Plates are incubated 10 min. at 37 ° C., then equilibrated to room temperature, and counted on a Packard Topcount. Linear regressions are performed and IC50's are calculated using computer software.
A modified version of the above HCMV polymerase assay is performed as described above, but with the following changes: Compounds are diluted in 100% DMSO until final dilution into assay buffer. In the previous assay, compounds are diluted in 50% DMSO. 4.5 mM dithiothreotol (DTT) is added to the polymerase buffer.

Another data set concerns the target VZV polymerase (Varicella-zoster virus, UniProt P09252). As to the kind of experiment: biochemical.
A further data set deals with HSV polymerase (Human herpesvirus 1, UniProt P04293). The data set can be described thus: biochemical.
[1] abbreviates: read-out: polymerase IC50 (μM) VZV.
The mark [2] stands for this setting: read-out: polymerase IC50 (μM) HSV.

VZV polymerase, sequence (P09252 whole entry): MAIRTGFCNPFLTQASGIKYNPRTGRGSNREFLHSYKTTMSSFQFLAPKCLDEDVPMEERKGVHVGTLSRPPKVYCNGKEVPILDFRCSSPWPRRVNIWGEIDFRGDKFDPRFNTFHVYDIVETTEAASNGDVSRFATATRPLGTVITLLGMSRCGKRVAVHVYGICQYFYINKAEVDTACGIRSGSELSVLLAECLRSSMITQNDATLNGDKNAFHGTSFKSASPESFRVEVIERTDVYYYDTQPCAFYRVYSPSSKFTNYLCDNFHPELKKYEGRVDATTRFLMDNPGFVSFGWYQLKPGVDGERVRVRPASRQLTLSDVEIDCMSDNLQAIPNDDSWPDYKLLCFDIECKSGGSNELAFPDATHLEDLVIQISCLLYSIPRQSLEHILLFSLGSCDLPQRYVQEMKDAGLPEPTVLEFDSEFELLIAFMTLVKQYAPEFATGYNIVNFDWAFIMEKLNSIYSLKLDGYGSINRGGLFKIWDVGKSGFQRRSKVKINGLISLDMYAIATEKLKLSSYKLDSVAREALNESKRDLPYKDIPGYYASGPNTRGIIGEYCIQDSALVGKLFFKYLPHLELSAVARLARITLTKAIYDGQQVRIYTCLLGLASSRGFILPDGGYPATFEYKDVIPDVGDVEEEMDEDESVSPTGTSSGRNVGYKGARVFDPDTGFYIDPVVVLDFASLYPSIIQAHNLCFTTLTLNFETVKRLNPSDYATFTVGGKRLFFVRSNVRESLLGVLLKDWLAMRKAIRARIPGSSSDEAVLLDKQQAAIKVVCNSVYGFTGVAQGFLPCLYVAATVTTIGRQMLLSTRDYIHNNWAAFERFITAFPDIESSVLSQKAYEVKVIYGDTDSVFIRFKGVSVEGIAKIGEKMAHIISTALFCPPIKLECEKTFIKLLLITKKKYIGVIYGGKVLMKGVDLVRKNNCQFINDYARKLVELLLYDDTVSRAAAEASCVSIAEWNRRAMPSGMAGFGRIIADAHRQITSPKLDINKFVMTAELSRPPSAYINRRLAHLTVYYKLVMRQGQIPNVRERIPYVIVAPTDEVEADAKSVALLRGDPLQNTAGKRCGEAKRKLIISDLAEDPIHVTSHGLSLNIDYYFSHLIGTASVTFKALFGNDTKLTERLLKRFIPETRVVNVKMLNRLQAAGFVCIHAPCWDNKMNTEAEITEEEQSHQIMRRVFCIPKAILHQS
T1 sequence (P08546 whole entry): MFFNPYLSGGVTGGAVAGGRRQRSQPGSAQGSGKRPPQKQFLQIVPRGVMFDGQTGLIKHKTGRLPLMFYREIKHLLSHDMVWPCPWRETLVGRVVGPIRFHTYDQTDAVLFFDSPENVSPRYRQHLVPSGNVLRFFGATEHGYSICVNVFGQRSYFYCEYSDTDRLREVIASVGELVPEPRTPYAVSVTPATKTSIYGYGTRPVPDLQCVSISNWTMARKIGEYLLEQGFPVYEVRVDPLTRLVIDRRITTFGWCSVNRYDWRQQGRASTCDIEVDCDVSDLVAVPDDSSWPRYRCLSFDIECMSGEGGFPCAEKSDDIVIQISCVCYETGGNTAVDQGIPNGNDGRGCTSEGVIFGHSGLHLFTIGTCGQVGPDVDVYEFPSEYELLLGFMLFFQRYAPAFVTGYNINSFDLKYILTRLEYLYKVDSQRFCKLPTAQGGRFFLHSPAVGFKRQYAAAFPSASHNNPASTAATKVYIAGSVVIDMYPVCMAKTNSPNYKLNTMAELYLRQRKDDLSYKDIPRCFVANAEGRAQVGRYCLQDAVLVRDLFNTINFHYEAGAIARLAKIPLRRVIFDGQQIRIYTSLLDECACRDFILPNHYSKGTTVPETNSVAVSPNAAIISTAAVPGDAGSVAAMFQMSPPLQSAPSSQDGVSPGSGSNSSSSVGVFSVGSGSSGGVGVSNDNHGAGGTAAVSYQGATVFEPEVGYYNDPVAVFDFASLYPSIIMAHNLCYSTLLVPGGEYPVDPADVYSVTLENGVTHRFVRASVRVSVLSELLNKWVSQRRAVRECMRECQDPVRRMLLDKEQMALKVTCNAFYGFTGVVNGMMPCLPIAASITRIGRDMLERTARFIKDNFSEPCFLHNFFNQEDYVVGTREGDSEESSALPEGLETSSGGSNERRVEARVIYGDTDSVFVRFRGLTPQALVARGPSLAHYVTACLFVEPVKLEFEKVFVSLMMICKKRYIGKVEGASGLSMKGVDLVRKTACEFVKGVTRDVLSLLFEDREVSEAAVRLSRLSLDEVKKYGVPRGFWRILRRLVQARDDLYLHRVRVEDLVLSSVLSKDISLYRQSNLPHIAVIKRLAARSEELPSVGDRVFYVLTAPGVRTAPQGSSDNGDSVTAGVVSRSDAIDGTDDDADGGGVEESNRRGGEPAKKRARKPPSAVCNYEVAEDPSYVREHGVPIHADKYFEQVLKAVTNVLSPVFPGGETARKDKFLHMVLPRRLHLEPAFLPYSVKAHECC
HSV polymerase, sequence (P04293 whole entry): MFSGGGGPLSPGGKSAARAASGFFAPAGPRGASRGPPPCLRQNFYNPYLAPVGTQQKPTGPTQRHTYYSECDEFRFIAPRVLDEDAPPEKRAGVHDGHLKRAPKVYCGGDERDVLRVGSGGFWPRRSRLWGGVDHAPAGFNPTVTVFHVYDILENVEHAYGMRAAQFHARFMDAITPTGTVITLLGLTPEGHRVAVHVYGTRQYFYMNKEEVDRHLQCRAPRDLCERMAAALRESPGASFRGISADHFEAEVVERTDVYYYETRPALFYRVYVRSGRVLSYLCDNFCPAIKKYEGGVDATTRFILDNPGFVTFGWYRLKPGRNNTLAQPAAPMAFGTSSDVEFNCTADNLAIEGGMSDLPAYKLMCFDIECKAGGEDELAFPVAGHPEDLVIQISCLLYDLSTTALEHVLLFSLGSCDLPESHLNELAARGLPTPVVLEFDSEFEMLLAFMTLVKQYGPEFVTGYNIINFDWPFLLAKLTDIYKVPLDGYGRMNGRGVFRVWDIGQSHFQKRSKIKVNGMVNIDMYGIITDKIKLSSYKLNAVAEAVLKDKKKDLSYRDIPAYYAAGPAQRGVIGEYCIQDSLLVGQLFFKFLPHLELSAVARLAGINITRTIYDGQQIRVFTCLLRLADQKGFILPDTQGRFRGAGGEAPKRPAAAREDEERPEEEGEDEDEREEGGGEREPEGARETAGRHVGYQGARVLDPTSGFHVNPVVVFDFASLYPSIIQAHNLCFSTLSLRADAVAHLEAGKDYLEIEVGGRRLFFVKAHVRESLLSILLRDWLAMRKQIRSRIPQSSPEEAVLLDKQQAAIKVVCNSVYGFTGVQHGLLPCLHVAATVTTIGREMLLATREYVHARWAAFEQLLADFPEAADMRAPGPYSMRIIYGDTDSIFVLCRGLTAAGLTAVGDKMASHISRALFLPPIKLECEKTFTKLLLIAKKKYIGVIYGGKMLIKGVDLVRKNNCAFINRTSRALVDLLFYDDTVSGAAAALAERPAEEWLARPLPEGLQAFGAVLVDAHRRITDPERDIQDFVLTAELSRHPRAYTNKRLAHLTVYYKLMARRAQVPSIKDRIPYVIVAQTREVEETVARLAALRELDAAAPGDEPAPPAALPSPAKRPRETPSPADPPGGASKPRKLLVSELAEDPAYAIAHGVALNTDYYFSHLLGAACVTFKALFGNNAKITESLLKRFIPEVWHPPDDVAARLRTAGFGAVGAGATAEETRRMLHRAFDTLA

Turning to `CCn1cc(C(=O)NCc2ccc(Cl)cc2)c(=O)c2cc(C#CCCO)sc21` [Example 15, N-(4-Chlorobenzyl)-7-ethyl-2-(4-hydroxy-1-butynyl)-4-oxo-4,7-dihydrothieno[2,3-b]pyridine-5-carboxamide], the 50% inhibitory concentration (IC50) at HCMV polymerase was determined as 4.7 µM; on VZV polymerase (setting [1]), 1.9 µM; on HSV polymerase (setting [2]) it was 3.2 µM.

For the compound `Cn1cc(C(=O)NCc2ccc(Cl)cc2)c(=O)c2cc(CCCO)sc21` [Example 25, N-(4-Chlorobenzyl)-2-(3-hydroxypropyl)-7-methyl4-oxo-4,7-7dihydrothieno[2,3-b]pyridine-5-carboxamide], the IC50 on HCMV polymerase stood at 0.4 µM; on VZV polymerase, 0.46 µM; on HSV polymerase (setting [2]) it was 0.45 µM.

In the case of `O=C(NCc1ccc(Cl)cc1)c1cn(CCO)c2sc(C#CCO)cc2c1=O` [Example 17, N-(4-Chlorobenzyl)-7-(2-hydroxyethyl)-2-(3-hydroxy-1-5 propynyl)-4-oxo-4,7-dihydrothieno[2,3-b]pyridine-5-carboxamide], the 50% inhibitory concentration (IC50) turned out to be 0.92 µM on HCMV polymerase, 0.28 µM on VZV polymerase (setting [1]) and 0.89 µM on HSV polymerase (setting [2]).

`CCN(CC)CCn1cc(C(=O)NCc2ccc(Cl)cc2)c(=O)c2cc(C#CCO)sc21` [Example 18, N-(4-Chlorobenzyl)-7-[2-(diethylamino)ethyl]-2-(3hydroxy-1-propynyl)4-oxo4,7-dihydrothieno[2,3-b]pyridine-5-carboxamide hydrochloride]: the values for the IC50 at HCMV polymerase, on VZV polymerase (setting [1]) and on HSV polymerase (setting [2]) were 1.7 µM, 0.39 µM and 0.95 µM, respectively.

In the case of `O=C(NCc1ccc(Cl)cc1)c1cnc2sc(C#CCO)cc2c1O` [Example 5, N-(4-Chlorobenzyl)-4-hydroxy-2-(3-hydroxy-1-propynyl)thieno[2,3-b]pyridine-5-carboxamide], the melting point was in the range of 233 to 236 °C. The half-inhibitory concentration (IC50) on HCMV polymerase is 2.5 µM. Also, on VZV polymerase (setting [1]), the IC50 was determined as 0.6 µM. The IC50 at HSV polymerase (setting [2]) was determined as 0.88 µM.

For `O=C(NCc1ccc(Cl)cc1)c1cnc2sc(CCCO)cc2c1O` [Example 8, N-(4-Chlorobenzyl)4-hydroxy-2-(3-hydroxpropyl)thieno[2,3-b]pyridine-5-carboxamide], the melting point is 185 to 186 °C. On HCMV polymerase, the 50% inhibitory concentration (IC50) worked out at 2.2 µM. For the same compound, the IC50 on VZV polymerase (setting [1]) is 0.55 µM. For the same compound, the concentration for half-maximal inhibition (IC50) at HSV polymerase (setting [2]) is 0.91 µM.

In the case of `Cn1cc(C(=O)NCc2ccc(Cl)cc2)c(=O)c2cc(CN3CCOCC3)sc21` [Example 36, N-(4-Chlorobenzyl)-7-methyl-2-(4-morpholinylmethyl)-4-oxo-4,7-dihydrothieno[2,3-b]pyridine-5-carboxamide], the IC50 stood at 1.8 µM at HCMV polymerase, 0.77 µM on VZV polymerase (setting [1]) and 1.2 µM at HSV polymerase.
